Data set [1] relates to Mycobacterium smegmatis. The class given is cell-based. An outline of the steps:
(§1)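 Strains grow in Mueller Hinton broth at 37 °C; test compound is diluted stepwise in Mueller Hinton to well 11, and the whole procedure is carried out in triplicate.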

Data set [2] deals with MRSA ATCC 33591. As to conditions: for MIC (MRSA*): ATCC 33591. An outline of the steps:
(§2)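 Twofold dilutions of DMSO-solubilised peptides (from 512 μg/ml) in Mueller Hinton; 24 h incubation, 37° C; visible growth scored.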

Data set [3] relates to VRE ATCC 29212. Briefly: microbe, parasite or virus in culture. The settings on record: ATCC 29212. An outline of the steps: as §2
In data set [4] the test system is VRE ATCC 700802. Briefly: microbe, parasite or virus in culture. The settings on record: ATCC 700802. An outline of the steps: as §2
In data set [5] the test system is M. smegmatis ATCC 607. The data set is described as follows: microbe, parasite or virus in culture. The settings on record: ATCC 607. An outline of the steps:
as §2

Data set [6] concerns MRSA ATCC 700699. Briefly: microbe, parasite or virus in culture. As to conditions: ATCC 700699. An outline of the steps: as §2
For data set [7], the system named is MRSA DM21455 (eye). The data set is described as follows: microbe, parasite or virus in culture. As to conditions: DM21455 (eye). An outline of the steps:
as §2

Data set [8] has as its system MRSA DR 42412 (sputum). The data set is described as follows: microbe, parasite or virus in culture. As to conditions: DR 42412 (sputum). An outline of the steps: as §2
In data set [9] the test system is Staphylococcus aureus ATCC 29213. Briefly: microbe, parasite or virus in culture. An outline of the steps:
as §2

Data set [10] deals with VRE 1004. The class given is cell-based, Enterococcus faecalis. An outline of the steps: as §1
Data set [11] has as its system VRE 1008. The class given is cell-based, Enterococcus faecalis. An outline of the steps:
as §1

Data set [12] relates to VRE 1001. The class given is cell-based, Enterococcus faecalis. An outline of the steps: as §1
The subject of data set [13] is VRE 1002. The class given is cell-based, Enterococcus faecalis. An outline of the steps: as §1
Data set [14] has as its system SA4299. The class given is cell-based. The settings on record: Table 11. An outline of the steps: as §1
The subject of data set [15] is Bacillus Subtilis ATCC 6633. The class given is cell-based. An outline of the steps:
as §1

Data set [16] deals with Staphylococcus saprophyticus ATCC 49453. The class given is cell-based. The settings on record: ATCC 49453. An outline of the steps: as §1
The test system of data set [17] is Staphylococcus saprophyticus ATCC 49907. The class given is cell-based. As to conditions: ATCC 49907. An outline of the steps: as §1
Data set [18] concerns Staphylococcus saprophyticus ATCC BAA 750. The class given is cell-based. The settings on record: ATCC BAA 750. An outline of the steps:
as §1

Data set [19] deals with SE12228. The class given is cell-based. An outline of the steps: as §1
For data set [20], the system named is Staphylococcus saprophyticus ATCC 15305. The class given is cell-based. The settings on record: ATCC 15305. An outline of the steps: as §1
The subject of data set [21] is Bacillus Cereus ATCC 11788. The class given is cell-based. An outline of the steps:
as §1

In data set [22] the test system is Enterococcus. An outline of the steps:
as §2

The subject of data set [23] is MRSA 1003. The class given is cell-based, Staphylococcus aureus. An outline of the steps: as §1
The test system of data set [24] is human lung epithelial cell line A549. Briefly: Cytotoxicity in A549 cells (MTS assay, high content imaging). The settings on record: A549; 24 h. Here is the method: (§3) It was important to evaluate the cytotoxicity of Compound 26 on mammalian cells prior to in vivo studies. The cytotoxicity of Compound 26 in human lung epithelial cell line A549 and primary dermal fibroblasts (hDFs) was determined. Both of these cell culture models are already established for evaluation of cytotoxicity of antimicrobial peptides.
(§4) The stock solution of Compound 26 (500 μg/ml) was prepared fresh by directly dissolving Compound 26 in cell culture medium and used. Cells were treated with dimethyl sulfoxide (DMSO, 0.1% v/v) or nocodazole (5 μg/ml dissolved in DMSO) as controls. At the end of the treatment period, metabolic activities of cells were quantified by MTS-based cell viability assay. […] After 24 h treatment with Compound 26, A549 cells (c) and hDFs (d) were fixed, fluorescently stained with rhodamine-phalloidin (red), alexa fluor 488 conjugated anti-α-tubulin (green) and Hoechst 33342 (blue) and imaged using IN Cell Analyzer 2200 automated microscope. Representative images of cells treated with Compound 26 (62.5 μg/ml for 24 h) or nocodazole (10 μg/ml, toxicity control) are shown in FIG. 2 c,d.
On the technique in general: Tetrazolium dyes change colour on reduction, which living cells bring about.

For data set [25], the system named is human primary dermal fibroblasts (hDFs). Briefly: Cytotoxicity in primary dermal fibroblasts (MTS assay, high content imaging). As to conditions: hDFs; 24 h. As to the method: as §3, §4
Data set [26] deals with Staphylococcus aureus ATCC 29213. The settings on record: reported for a teixobactin analogue; cited from earlier work.

Converted amounts (≈) assume the structure as drawn. Bridge positions count the residues as written; N and C are the ends. Square brackets hold non-standard residues; d marks the D form. Peptide text beside a SMILES is read from it. * marks the point of attachment. dNMeF = CN[C@H](Cc1ccccc1)C(=O)O; X1 = NCC(CN)OC(=O)*

For the compound `CC[C@@H](C)[C@@H](NC(=O)[C@@H](CCC(N)=O)NC(=O)[C@H](CO)NC(=O)[C@@H](NC(=O)[C@@H](Cc1ccccc1)NC)[C@@H](C)CC)C(=O)N[C@H](C(=O)N[C@@H](CO)C(=O)N[C@H]1C(=O)N[C@@H](C)C(=O)N[C@@H](CCCCNC(=O)OC(CN)CN)C(=O)N[C@@H]([C@@H](C)CC)C(=O)O[C@H]1C)[C@@H](C)CC` [Compound 21, Diamino10-Teixobactin] (H-[dNMeF]IS[dQ][dI]IS[dT]AK(X1)I; ester 8-C), in [1], the “MIC (μg/mL) Mycobacterium smegmatis” value came out at 0.5 µg/mL (≈ 0.375 µM). Also, the “MIC (MRSA*)” value in [2] is 0.25 µg/mL (≈ 0.188 µM).
Take `CC[C@@H](C)[C@@H](NC(=O)[C@@H](CCC(N)=O)NC(=O)[C@H](CO)NC(=O)[C@@H](NC(=O)[C@@H](Cc1ccccc1)NC)[C@@H](C)CC)C(=O)N[C@H](C(=O)N[C@@H](CO)C(=O)N[C@H]1C(=O)N[C@@H](C)C(=O)N[C@@H](C)C(=O)N[C@@H]([C@@H](C)CC)C(=O)O[C@H]1C)[C@@H](C)CC` [Compound 14]: in data set [1], the “MIC (μg/mL) Mycobacterium smegmatis” value came out at 2 µg/mL (≈ 1.73 µM). The MIC was 4 µg/mL (≈ 3.45 µM) in data set [3]; 4 µg/mL (≈ 3.45 µM) in data set [4]; 1 to 2 µg/mL in data set [5]; 4 µg/mL (≈ 3.45 µM) in data set [6]; 1 µg/mL (≈ 0.863 µM) in data set [7]; 1 µg/mL (≈ 0.863 µM) in [8]. Moreover, in data set [9] (ATCC 29213), the MIC worked out at 1 µg/mL (≈ 0.863 µM). Besides, the MBC in data set [6] turned out to be 16 µg/mL (≈ 13.8 µM); in [7] it was 2 µg/mL (≈ 1.73 µM); in data set [8] it was 4 µg/mL (≈ 3.45 µM); in data set [9] (ATCC 29213), 2 µg/mL (≈ 1.73 µM). The “MIC (MRSA*)” value in data set [2] lay within 1 to 2 µg/mL.
As to `CC[C@@H](C)[C@@H](NC(=O)[C@@H](CCCNC(=N)N)NC(=O)[C@H](CCCNC(=N)N)NC(=O)[C@@H](NC(=O)[C@@H](Cc1ccccc1)NC)[C@@H](C)CC)C(=O)N[C@H](C(=O)N[C@@H](CO)C(=O)N[C@H]1C(=O)N[C@@H](CCCNC(=N)N)C(=O)N[C@@H](CC(C)C)C(=O)N[C@@H]([C@@H](C)CC)C(=O)O[C@H]1C)[C@@H](C)CC` [Compound 31, Arg3-D-Arg4-Arg9-Leu10-teixobactin] (H-[dNMeF]IR[dR][dI]IS[dT]RLI; ester 8-C), the MIC is 4 µg/mL (≈ 2.89 µM) in [10]; 8 µg/mL (≈ 5.78 µM) in [11]; 2 µg/mL (≈ 1.45 µM) in data set [12]; 8 µg/mL (≈ 5.78 µM) in data set [13]; 1 µg/mL (≈ 0.723 µM) in data set [14]; less than 0.0625 µg/mL in data set [15]. Also, the MIC in [16] is less than 0.0625 µg/mL; in data set [17], less than 0.0625 µg/mL; in data set [18] it was less than 0.0625 µg/mL; in [19], less than 0.0625 µg/mL; in data set [20], 0.25 µg/mL (≈ 0.181 µM); in data set [21] it was 1 µg/mL (≈ 0.723 µM). Besides, the MIC in [3] was 4 µg/mL (≈ 2.89 µM); in [4], 4 µg/mL (≈ 2.89 µM); in data set [6] it was 2 µg/mL (≈ 1.45 µM); in data set [7], 2 µg/mL (≈ 1.45 µM); in [8], 2 µg/mL (≈ 1.45 µM); in data set [23] it was 2 µg/mL (≈ 1.45 µM). Besides, the “MIC against Staphylococcus aureus ATCC 29213” value in [9] was 1 µg/mL (≈ 0.723 µM). In data set [2] (MRSA ATCC 33591), the “MIC against MRSA ATCC 33591” value came out at 1 µg/mL (≈ 0.723 µM). Further, the “MIC in Enterococcus” value in data set [22] lay within 2 to 8 µg/mL.
On to `COC(=O)Nc1nc2ccc(C(=O)c3cccs3)cc2[nH]1` [nocodazole, reference compound], for which the “cell morphology, high content images” value in data set [24] and in data set [25] was “substantial loss of adhered cells” in each case.
As to Lys3-D-Lys4-Lys10-teixobactin, the “reported MIC against Staphylococcus aureus ATCC 29213” value in data set [26] is 8 µg/mL.

Values taken from patent publication US20240327463A1, “ANTIBACTERIAL PRODUCTS” (priority 2017, published 2024).
